Legend:
[1] = system: Com21 synthetic gut community; experiment: community biomass OD578 after 24 h drug treatment relative to untreated (fraction of untreated control); higher = more community growth; settings: community: Com21 (Com20 + E. coli ED1a)
Experimental: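 Com21 (Com20 plus E. coli ED1a) was treated with drug for 24 h under anaerobic conditions in mGAM. Community OD578 was then measured and normalised to untreated Com21; mean of 3 biological replicates.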

[2] = system: Collinsella aerofaciens; experiment: IC25 growth inhibition; higher = less potent
How it was run: (§1)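 Under anaerobic conditions, OD578 was read hourly in a plate reader for at least three biological replicates of monocultures grown overnight in mGAM. Each culture started at an OD578 of 0.01 in pre-reduced plates holding twofold drug dilutions and 1% DMSO (or water). IC25 was reported as a tested interval: the lowest concentration where the monotonic median area under the growth curve dropped below the cutoff. That cutoff was 0.75.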

[3] = system: Vibrio cholerae; experiment: IC25 growth inhibition; higher = less potent
How it was run: as §1

[4] = system: Shigella flexneri; experiment: IC25 growth inhibition; higher = less potent
How it was run: as §1

[5] = system: Parabacteroides merdae; experiment: IC25 growth inhibition; higher = less potent
How it was run: as §1

[6] = system: Dorea formicigenerans; experiment: IC25 growth inhibition; higher = less potent
How it was run: as §1

[7] = system: Fusobacterium nucleatum subsp. Nucleatum; experiment: IC25 growth inhibition; higher = less potent
How it was run: as §1

[8] = system: Salmonella enterica typhimurium; experiment: IC25 growth inhibition; higher = less potent
How it was run: as §1

[9] = system: Clostridium perfringens; experiment: IC25 growth inhibition; higher = less potent
How it was run: as §1

[10] = system: Yersinia enterocolitica WA-314; experiment: IC25 growth inhibition; higher = less potent
How it was run: as §1

[11] = system: Streptococcus salivarius; experiment: IC25 growth inhibition; higher = less potent
How it was run: as §1

[12] = system: Escherichia coli ED1a; experiment: IC25 growth inhibition; higher = less potent
How it was run: as §1

[13] = system: Bacteroides thetaiotaomicron; experiment: IC25 growth inhibition; higher = less potent
How it was run: as §1

[14] = system: Clostridium saccharolyticum; experiment: IC25 growth inhibition; higher = less potent
How it was run: as §1

[15] = system: Clostridium ramosum; experiment: IC25 growth inhibition; higher = less potent
How it was run: as §1

[16] = system: Eubacterium rectale; experiment: IC25 growth inhibition; higher = less potent
How it was run: as §1

[17] = system: Streptococcus parasanguinis; experiment: IC25 growth inhibition; higher = less potent
How it was run: as §1

[18] = system: Roseburia intestinalis; experiment: IC25 growth inhibition; higher = less potent
How it was run: as §1

[19] = system: Coprococcus comes; experiment: IC25 growth inhibition; higher = less potent
How it was run: as §1

[20] = system: Bacteroides uniformis; experiment: IC25 growth inhibition; higher = less potent
How it was run: as §1

[21] = system: Yersinia pseudotuberculosis; experiment: IC25 growth inhibition; higher = less potent
How it was run: as §1

[22] = system: Clostridium bolteae; experiment: IC25 growth inhibition; higher = less potent
How it was run: as §1

[23] = system: Ruminococcus gnavus; experiment: IC25 growth inhibition; higher = less potent
How it was run: as §1

[24] = system: Bacteroides fragilis NT; experiment: IC25 growth inhibition; higher = less potent
How it was run: as §1

[25] = system: Bacteroides vulgatus; experiment: IC25 growth inhibition; higher = less potent
How it was run: as §1

[26] = drug pretreatment concentration 10 µM
[27] = drug pretreatment concentration 20 µM
[28] = drug pretreatment concentration 40 µM
[29] = drug pretreatment concentration 80 µM
[30] = drug pretreatment concentration 160 µM
[31] = drug pretreatment concentration 5 µM
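For IC25 growth inhibition in this document: lowest concentration where monotonic median growth AUC falls below 0.75 of drug-free control.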

Structure (SMILES)	community biomass OD578 [1, 26]	community biomass OD578 [1, 27]	community biomass OD578 [1, 28]	community biomass OD578 [1, 29]	community biomass OD578 [1, 30]	IC25 growth inhibition [2]	IC25 growth inhibition [3]	IC25 growth inhibition [4]	IC25 growth inhibition [5]	IC25 growth inhibition [6]	IC25 growth inhibition [7]	IC25 growth inhibition [8]	IC25 growth inhibition [9]	IC25 growth inhibition [10]	IC25 growth inhibition [11]	IC25 growth inhibition [12]	IC25 growth inhibition [13]	IC25 growth inhibition [14]	IC25 growth inhibition [15]	IC25 growth inhibition [16]	IC25 growth inhibition [17]	IC25 growth inhibition [18]	IC25 growth inhibition [19]	IC25 growth inhibition [20]	IC25 growth inhibition [21]	IC25 growth inhibition [22]	IC25 growth inhibition [23]	IC25 growth inhibition [24]	IC25 growth inhibition [25]	community biomass OD578 [1, 31]	community biomass OD578 ([1]; drug pretreatment concentration 2.5 µM)
C[C@H]1c2cccc(O)c2C(=O)C2=C(O)[C@]3(O)C(=O)C(C(N)=O)=C(O)[C@@H](N(C)C)[C@@H]3[C@@H](O)[C@@H]21 [Doxycycline]	0.062	0.06	0.064	0.065	0.064	< 1.25 µM	< 1.25 µM	≤ 40 µM	≤ 40 µM	< 1.25 µM	< 1.25 µM	> 160 µM	< 1.25 µM	≤ 40 µM	≤ 40 µM	< 1.25 µM	< 1.25 µM	< 1.25 µM	< 1.25 µM	< 1.25 µM	< 1.25 µM	< 1.25 µM	≤ 40 µM	< 1.25 µM	≤ 40 µM	< 1.25 µM	≤ 40 µM	< 1.25 µM	< 1.25 µM		
CC[C@H]1OC(=O)[C@H](C)[C@@H](O[C@H]2C[C@@](C)(OC)[C@@H](O)[C@H](C)O2)[C@H](C)[C@@H](O[C@@H]2O[C@H](C)C[C@H](N(C)C)[C@H]2O)[C@](C)(O)C[C@@H](C)C(=O)[C@H](C)[C@@H](O)[C@]1(C)O [Erythromycin]	0.734	0.696	0.608	0.496	0.409	< 1.25 µM	< 1.25 µM	≤ 10 µM	< 1.25 µM	< 1.25 µM	≤ 5 µM	≤ 40 µM	< 1.25 µM	≤ 20 µM	< 1.25 µM	≤ 20 µM	< 1.25 µM	< 1.25 µM	< 1.25 µM	< 1.25 µM	< 1.25 µM	< 1.25 µM	< 1.25 µM	< 1.25 µM	≤ 40 µM	≤ 2.5 µM	< 1.25 µM	< 1.25 µM	< 1.25 µM		
C#C[C@]1(O)CC[C@H]2[C@@H]3CCc4cc(O)ccc4[C@H]3CC[C@@]21C [Ethinylestradiol]	0.986	0.99	0.976	0.779		> 80 µM	≤ 40 µM	> 80 µM	> 80 µM	> 80 µM	> 80 µM	> 80 µM	> 80 µM	> 80 µM	> 80 µM	> 80 µM	> 80 µM	> 80 µM	> 80 µM	> 80 µM	> 80 µM	> 80 µM	> 80 µM	> 80 µM	> 80 µM	> 80 µM	> 80 µM	> 80 µM	> 80 µM	1.01	
CCN(CC)C(C)CN1c2ccccc2Sc2ccccc21 (configuration not stated) [Ethopropazine]	0.981	0.995	0.997	0.992	0.97	> 80 µM	> 80 µM	> 80 µM	< 1.25 µM	> 80 µM	> 80 µM	> 80 µM	> 80 µM	> 80 µM	> 80 µM	> 160 µM	≤ 2.5 µM	> 80 µM	> 80 µM	> 80 µM	> 80 µM	≤ 80 µM	> 80 µM	≤ 10 µM	> 80 µM	> 80 µM	> 80 µM	≤ 10 µM	< 1.25 µM		
O=c1[nH]c(=O)n([C@H]2C[C@H](O)[C@@H](CO)O2)cc1F [Floxuridine]	0.993	0.907	0.886	0.882	0.88	> 160 µM	≤ 10 µM	≤ 20 µM	> 160 µM	> 160 µM	≤ 80 µM	≤ 40 µM	< 1.25 µM	≤ 20 µM	< 1.25 µM	≤ 10 µM	< 1.25 µM	≤ 160 µM	< 1.25 µM	> 160 µM	< 1.25 µM	> 160 µM	> 160 µM	< 1.25 µM	≤ 5 µM	≤ 80 µM	≤ 2.5 µM	< 1.25 µM	< 1.25 µM		
OC(Cn1cncn1)(Cn1cncn1)c1ccc(F)cc1F [Fluconazole]	0.936	1.02	0.993	0.99	1.04	≤ 160 µM	> 160 µM	> 160 µM	> 160 µM	> 160 µM	> 160 µM	> 160 µM	> 160 µM	> 160 µM	> 160 µM	> 160 µM	> 160 µM	> 160 µM	> 160 µM	≤ 40 µM	> 160 µM	> 160 µM	> 160 µM	> 160 µM	> 160 µM	> 160 µM	> 160 µM	> 160 µM	> 160 µM		
CC(=O)N1CCN(c2ccc(OCC3COC(Cn4ccnc4)(c4ccc(Cl)cc4Cl)O3)cc2)CC1 (configuration not stated) [Ketoconazole]	0.941	0.979	0.953	0.928	0.731	≤ 80 µM	> 160 µM	> 80 µM	≤ 40 µM	≤ 40 µM	≤ 160 µM	> 160 µM	≤ 80 µM	> 80 µM	≤ 80 µM	> 160 µM	≤ 80 µM	≤ 80 µM	> 160 µM	≤ 40 µM	> 80 µM	≤ 80 µM	≤ 40 µM	≤ 40 µM	> 160 µM	> 160 µM	≤ 80 µM	≤ 80 µM	≤ 40 µM		
N[C@@H](Cc1cc(I)c(Oc2cc(I)c(O)c(I)c2)c(I)c1)C(=O)O [L-Thyroxin]	1.01	1.03	1.02			> 160 µM	> 160 µM	> 160 µM	> 160 µM	≤ 80 µM	> 160 µM	> 160 µM	> 160 µM	> 160 µM	> 160 µM	> 40 µM	> 160 µM	> 160 µM	> 160 µM	> 160 µM	> 160 µM	> 160 µM	> 160 µM	> 160 µM	> 160 µM	> 160 µM	> 160 µM	> 160 µM	> 160 µM	0.999	0.996

From the supplement of paper PMC12350171
